The results in this text go back to patent publication US11897851B2, “Heterocyclic GLP-1 agonists” (Gasherbrum Bio, Inc., priority 2021, dated 2024).

T1 sequence (P43220 24-463, species assumed): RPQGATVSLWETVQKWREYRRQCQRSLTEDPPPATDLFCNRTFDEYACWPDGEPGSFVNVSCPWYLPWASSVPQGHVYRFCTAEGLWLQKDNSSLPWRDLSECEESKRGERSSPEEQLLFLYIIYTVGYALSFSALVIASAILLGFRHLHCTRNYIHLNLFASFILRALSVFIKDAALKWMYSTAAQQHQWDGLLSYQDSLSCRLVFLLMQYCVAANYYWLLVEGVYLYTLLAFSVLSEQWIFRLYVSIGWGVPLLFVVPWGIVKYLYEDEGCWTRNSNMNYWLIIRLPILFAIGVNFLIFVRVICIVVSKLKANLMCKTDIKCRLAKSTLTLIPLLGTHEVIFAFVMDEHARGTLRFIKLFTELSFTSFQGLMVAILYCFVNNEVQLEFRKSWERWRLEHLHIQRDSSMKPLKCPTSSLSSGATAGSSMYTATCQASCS

This assay concerns the target T1, GLP-1 Receptor (Homo sapiens, UniProt P43220).
T1 construct: host or cells: HEK293/GLP1R/CRE-LUC (HEK293/CRE-Luc stably expressing the GLP-1 receptor)
Kind of assay: GLP-1R agonist cAMP stimulation assay (HEK293/GLP1R/CRE-LUC cells, Cisbio cAMP dynamic 2 kit).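 Also: compounds tested in half-log serial dilution, cAMP detected with cAMP-d2 and anti-cAMP cryptate antibody reagents after 1 h at room temperature.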 Format: cell-based. The settings on record: HEK293/CRE-Luc cell line stably expressing the GLP-1 Receptor; 1000 cells/well; 30 min at 37° C.; 0.5 mM IBMX, 0.1% BSA; read-out: GLP1R cAMP Stimulation DR: EC50.
With `CCn1cncc1Cn1c(/C=C/C(=O)O)cnc1CN1CCC(c2cccc(OCc3ccc(Cl)cc3F)n2)CC1` [Compound 214, (E)-3-(2-((4-(6-((4-chloro-2-fluorobenzyl)oxy)pyridin-2-yl)piperidin-1-yl)methyl)-1-((1-ethyl-1H-imidazol-5-yl)methyl)-1H-imidazol-5-yl)acrylic acid], the EC50 came out at 0.0032 nM. The same measure for `O=C(O)/C(F)=C/c1cnc(CN2CCC(c3cccc(OCc4ccc(Cl)cc4F)n3)CC2)n1C[C@@H]1CCO1` [Compound 215a, (S,Z)-3-(2-((4-(6-((4-chloro-2-fluorobenzyl)oxy)pyridin-2-yl)piperidin-1-yl)methyl)-1-(oxetan-2-ylmethyl)-1H-imidazol-5-yl)-2-fluoroacrylic acid]: 55 nM; for `COCC/C(=C\c1cnc(CN2CCC(c3cccc(OCc4ccc(Cl)cc4F)n3)CC2)n1C[C@@H]1CCO1)C(=O)O` [Compound 216a, (S,E)-2-((2-((4-(6-((4-chloro-2-fluorobenzyl)oxy)pyridin-2-yl)piperidin-1-yl)methyl)-1-(oxetan-2-ylmethyl)-1H-imidazol-5-yl)methylene)-4-methoxybutanoic acid]: 4.4 nM; for `C/C(=C\c1cnc(CN2CCC(c3cccc(OCc4ccc(Cl)cc4F)n3)CC2)n1C[C@@H]1CCO1)C(=O)O` [Compound 218a, (S,E)-3-(2-((4-(6-((4-chloro-2-fluorobenzyl)oxy)pyridin-2-yl)piperidin-1-yl)methyl)-1-(oxetan-2-ylmethyl)-1H-imidazol-5-yl)-2-methylacrylic acid]: 1.4 nM. The same measure for `CCn1cncc1Cn1c(/C=C(\C)C(=O)O)cnc1CN1CCC(c2cccc(OCc3ccc(Cl)cc3F)n2)CC1` [Compound 219, (E)-3-(2-((4-(6-((4-chloro-2-fluorobenzyl)oxy)pyridin-2-yl)piperidin-1-yl)methyl)-1-((1-ethyl-1H-imidazol-5-yl)methyl)-1H-imidazol-5-yl)-2-methylacrylic acid]: 0.0069 nM.

As to `CCn1cncc1Cn1c(/C=C(\C)C(=O)O)cnc1CN1CCC(c2cccc(OCc3ccc(Cl)cn3)n2)CC1` [Compound 220, (E)-3-(2-((4-(6-((5-chloropyridin-2-yl)methoxy)pyridin-2-yl)piperidin-1-yl)methyl)-1-((1-ethyl-1H-imidazol-5-yl)methyl)-1H-imidazol-5-yl)-2-methylacrylic acid], the EC50 amounted to 0.11 nM.

Consider `COCCn1c(/C(F)=C/C(=O)O)cnc1CN1CCC(c2cccc(OCc3ccc(Cl)cc3F)n2)CC1` [Compound 221, (Z)-3-(2-((4-(6-((4-chloro-2-fluorobenzyl)oxy)pyridin-2-yl)piperidin-1-yl)methyl)-1-(2-methoxyethyl)-1H-imidazol-5-yl)-3-fluoroacrylic acid], for which the EC50 came out at 0.56 nM. In the case of `O=C(O)/C=C/c1cn(Cc2ncco2)c(CN2CCC(c3cccc4c3OC[C@@H](c3ccc(Cl)cc3)O4)CC2)n1` [Compound 222a, (R,E)-3-(2-((4-(2-(4-chlorophenyl)-2,3-dihydrobenzo[b][1,4]dioxin-5-yl)piperidin-1-yl)methyl)-1-(oxazol-2-ylmethyl)-1H-imidazol-4-yl)acrylic acid], the EC50 was 6.9 nM. Regarding `COCCn1c(/C=C/C(=O)O)nnc1CN1CCC(c2cccc(OCc3ccc(Cl)cc3F)n2)CC1` [Compound 223, (E)-3-(5-((4-(6-((4-chloro-2-fluorobenzyl)oxy)pyridin-2-yl)piperidin-1-yl)methyl)-4-(2-methoxyethyl)-4H-1,2,4-triazol-3-yl)acrylic acid], the EC50 was 0.47 nM.

With `COCCn1c(/C=C(\C)C(=O)O)nnc1CN1CCC(c2cccc(OCc3ccc(Cl)cc3F)n2)CC1` [Compound 224, (E)-3-(5-((4-(6-((4-chloro-2-fluorobenzyl)oxy)pyridin-2-yl)piperidin-1-yl)methyl)-4-(2-methoxyethyl)-4H-1,2,4-triazol-3-yl)-2-methylacrylic acid], the concentration for a half-maximal effect (EC50) was found to be 2.1 nM. The same measure for `O=C(O)/C=C/c1nnc(CN2CCC(c3cccc(OCc4ccc(Cl)cc4F)n3)CC2)n1C[C@@H]1CCO1` [Compound 225a, (S,E)-3-(5-((4-(6-((4-chloro-2-fluorobenzyl)oxy)pyridin-2-yl)piperidin-1-yl)methyl)-4-(oxetan-2-ylmethyl)-4H-1,2,4-triazol-3-yl)acrylic acid]: 0.26 nM.

With `C/C(=C\c1nnc(CN2CCC(c3cccc(OCc4ccc(Cl)cc4F)n3)CC2)n1C[C@@H]1CCO1)C(=O)O` [Compound 226a, (S,E)-3-(5-((4-(6-((4-chloro-2-fluorobenzyl)oxy)pyridin-2-yl)piperidin-1-yl)methyl)-4-(oxetan-2-ylmethyl)-4H-1,2,4-triazol-3-yl)-2-methylacrylic acid], the EC50 is 1.2 nM. Next, `C/C(=C\c1nnc(CN2CCC(c3cccc(OCc4ccc(Cl)cc4F)n3)CC2)n1CCS(C)(=O)=O)C(=O)O` [Compound 227, (E)-3-(5-((4-(6-((4-chloro-2-fluorobenzyl)oxy)pyridin-2-yl)piperidin-1-yl)methyl)-4-(2-(methylsulfonyl)ethyl)-4H-1,2,4-triazol-3-yl)-2-methylacrylic acid]: 1.7 nM; `CCn1cncc1Cn1c(/C=C/C(=O)O)nnc1CN1CCC(c2cccc(OCc3ccc(Cl)cc3F)n2)CC1` [Compound 228, (E)-3-(5-((4-(6-((4-chloro-2-fluorobenzyl)oxy)pyridin-2-yl)piperidin-1-yl)methyl)-4-((1-ethyl-1H-imidazol-5-yl)methyl)-4H-1,2,4-triazol-3-yl)acrylic acid]: 0.0048 nM. Next, `O=C(O)/C=C/c1nnc(CN2CCC(c3cccc(OCc4ccc(Cl)cc4F)n3)CC2)n1CC1CCC1` [Compound 229, (E)-3-(5-((4-(6-((4-chloro-2-fluorobenzyl)oxy)pyridin-2-yl)piperidin-1-yl)methyl)-4-(cyclobutylmethyl)-4H-1,2,4-triazol-3-yl)acrylic acid]: 2.7 nM; `O=C(O)/C=C/c1nnc(CN2CCC(c3cccc(OCc4ccc(Cl)cc4F)n3)CC2)n1CC(F)F` [Compound 230, (E)-3-(5-((4-(6-((4-chloro-2-fluorobenzyl)oxy)pyridin-2-yl)piperidin-1-yl)methyl)-4-(2,2-difluoroethyl)-4H-1,2,4-triazol-3-yl)acrylic acid]: 41 nM; `O=C(O)/C=C/c1nnc(CN2CCC(c3cccc(OCc4ccc(Cl)cc4F)n3)CC2)n1CC1CCCO1` (centres unmarked) [Compound 231, (E)-3-(5-((4-(6-((4-chloro-2-fluorobenzyl)oxy)pyridin-2-yl)piperidin-1-yl)methyl)-4-((tetrahydrofuran-2-yl)methyl)-4H-1,2,4-triazol-3-yl)acrylic acid]: 0.88 nM. Turning to `O=C(O)/C=C/c1nnc(CN2CCC(c3cccc(OCc4ccc(Cl)cc4F)n3)CC2)n1CC1CCOC1` (centres unmarked) [Compound 232, (E)-3-(5-((4-(6-((4-chloro-2-fluorobenzyl)oxy)pyridin-2-yl)piperidin-1-yl)methyl)-4-((tetrahydrofuran-3-yl)methyl)-4H-1,2,4-triazol-3-yl)acrylic acid], the EC50 was 1.2 nM. Regarding `O=C(O)/C=C/c1nnc(CN2CCC(c3cccc(OCc4ccc(Cl)cc4F)n3)CC2)n1CC1CCOCC1` [Compound 233, (E)-3-[5-[[4-[6-[(4-chloro-2-fluoro-phenyl)methoxy]-2-pyridyl]-1-piperidyl]methyl]-4-(tetrahydropyran-4-ylmethyl)-1,2,4-triazol-3-yl]prop-2-enoic acid], the EC50 is 26 nM.

With `CCn1cncc1Cn1c(/C=C/C(=O)O)nnc1CN1CCC(c2cccc3c2OC[C@@H](c2ccc(Cl)cc2)O3)CC1` [Compound 234a, (R,E)-3-(5-((4-(2-(4-chlorophenyl)-2,3-dihydrobenzo[b][1,4]dioxin-5-yl)piperidin-1-yl)methyl)-4-((1-ethyl-1H-imidazol-5-yl)methyl)-4H-1,2,4-triazol-3-yl)acrylic acid], the EC50 is 0.026 nM. `COCCn1c(CN2CCC(c3cccc(OCc4ccc(Cl)cc4F)n3)CC2)nnc1C(C)=CC(=O)O` [Compound 235, 3-(5-((4-(6-((4-chloro-2-fluorobenzyl)oxy)pyridin-2-yl)piperidin-1-yl)methyl)-4-(2-methoxyethyl)-4H-1,2,4-triazol-3-yl)but-2-enoic acid]: the concentration giving a half-maximal response (EC50) came out at 10 nM. Next, `CC(=CC(=O)O)c1nnc(CN2CCC(c3cccc(OCc4ccc(Cl)cc4F)n3)CC2)n1CC1CCC1` [Compound 236, 3-(5-((4-(6-((4-chloro-2-fluorobenzyl)oxy)pyridin-2-yl)piperidin-1-yl)methyl)-4-(cyclobutylmethyl)-4H-1,2,4-triazol-3-yl)but-2-enoic acid]: 38 nM; `COCCn1c(CCC(=O)O)cnc1CN1CCC(c2cccc3c2OC(C)(c2ccc(Cl)cc2F)O3)CC1` (centres unmarked) [Compound 237, 3-(2-((4-(2-(4-chloro-2-fluorophenyl)-2-methylbenzo[d][1,3]dioxol-4-yl)piperidin-1-yl)methyl)-1-(2-methoxyethyl)-1H-imidazol-5-yl)propanoic acid]: 0.29 nM. For `CC1(c2ccc(Cl)cc2F)Oc2cccc(C3CCN(Cc4ncc(CCC(=O)O)n4CCOC(F)F)CC3)c2O1` (centres unmarked) [Compound 238, 3-(2-((4-(2-(4-chloro-2-fluorophenyl)-2-methylbenzo[d][1,3]dioxol-4-yl)piperidin-1-yl)methyl)-1-(2-(difluoromethoxy)ethyl)-1H-imidazol-5-yl)propanoic acid], the EC50 was found to be 0.43 nM. As for `CC1(c2ccc(Cl)cc2F)Oc2cccc(C3CCN(Cc4ncc(CCC(=O)O)n4C[C@@H]4CCO4)CC3)c2O1` (stereo partly drawn) [Compound 239, 3-(2-((4-(2-(4-chloro-2-fluorophenyl)-2-methylbenzo[d][1,3]dioxol-4-yl)piperidin-1-yl)methyl)-1-(((S)-oxetan-2-yl)methyl)-1H-imidazol-5-yl)propanoic acid], the EC50 came out at 0.45 nM. The same measure for `CC1(c2ccc(Cl)cc2F)Oc2cccc(C3CCN(Cc4ncc(CCC(=O)O)n4CC4CCS4(=O)=O)CC3)c2O1` (centres unmarked) [Compound 240, 3-(2-((4-(2-(4-chloro-2-fluorophenyl)-2-methylbenzo[d][1,3]dioxol-4-yl)piperidin-1-yl)methyl)-1-((1,1-dioxidothietan-2-yl)methyl)-1H-imidazol-5-yl)propanoic acid]: 0.38 nM.

As a reminder, the EC50 is the concentration giving half of the maximal effect.
